One test deals with HCT116 WT cells. The experiment in a line: HCT116 WT (parent) cell line proliferation / cell viability (CellTiter-Glo, 6 days). To be noted: Homo sapiens, HCT-116, 144 h, 6 days treatment. The test is classed as cell-based. The procedure, abridged: (§1)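 Isogenic HCT116 pair (parental and MTAP-knockout) in RPMI 1640 + 10% FBS, treated 6 days with 8–9-point 1:3 dilutions from 1 or 10 μM top, or 22-point 1:2 dilutions from 10 or 50 μM top. Viability by CellTiter-Glo luminescence; IC50 from 4-parameter logistic fit or sigmoidal fit with Hill slope fixed at −1.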
Background: In ATP-based viability assays light output follows the ATP content of the culture.

For another test, the system named is HCT116 MTAP null cells. The test is described as follows: HCT116 MTAP null cell line proliferation / cell viability (CellTiter-Glo, 6 days). It counts as cell-based. To be noted: 144 h; HCT116 MTAP null cells, 6 days treatment, CellTiter-Glo cell viability; read-out: HCT-116 MTAP null IC50. The procedure, abridged:
as §1

Each structure is given as a SMILES string. pIC50: −log10 of the molar value.

One may read the pIC50 as −log10 of the IC50, conventionally taken in molar units. With `CN(C(=O)c1cc2c(cc1F)nc(N)c1c2cnn1C)[C@@H]1COc2cc(OC(F)F)ccc21` (single isomer, unassigned) [Example 577], the results for the negative logarithm of the IC50 (pIC50) in the test with HCT116 WT cells and with HCT116 MTAP null cells were 4.79 and 6.88, respectively.
For `CN(C(=O)c1ccc2nc(N)c3c(c2c1)COC3)[C@@H]1CCOc2cc(C(F)(F)F)ccc21` (single isomer, unassigned) [Example 578] the same measures were 5.23 and 6.65.
For `CN(C(=O)c1ccc2nc(N)c3c(c2c1)COC3)[C@H]1CCOc2cc(C(F)(F)F)ccc21` (single isomer, unassigned) [Example 579], the values for the pIC50 in the test on HCT116 WT cells and in the test with HCT116 MTAP null cells were 5.35 and 5.63, respectively.
With `CCN(C(=O)c1ccc2nc(N)c3c(c2c1)COC3)[C@@H]1COCc2cc(Br)ccc21` (single isomer, unassigned) [Example 580], the negative logarithm of the IC50 (pIC50) with HCT116 WT cells is 6.01; in the test on HCT116 MTAP null cells, 7.72.
`CCN(C(=O)c1ccc2nc(N)c3c(c2c1)COC3)[C@H]1COCc2cc(Br)ccc21` (single isomer, unassigned) [Example 581]: the negative-log IC50 (pIC50) is 4.75 with HCT116 WT cells and 6.10 in the test on HCT116 MTAP null cells.
With `COc1ccc2c(c1)COC[C@H]2N(C)C(=O)c1cc2c3c(c(N)nc2cn1)COC3` (single isomer, unassigned) [Example 582], the negative-log IC50 (pIC50) with HCT116 WT cells is 5.25; in the test with HCT116 MTAP null cells it was 7.12.
For the molecule `CN(C(=O)c1cc2c3c(c(N)nc2cn1)COC3)[C@@H]1COCc2ccc(C(F)(F)F)cc21` (single isomer, unassigned) [Example 583], the negative-log IC50 (pIC50) in the test on HCT116 WT cells is 5.05; with HCT116 MTAP null cells, 6.39.
For the molecule `CN(C(=O)c1cc2c3c(c(N)nc2cn1)COC3)[C@H]1COCc2ccc(C(F)(F)F)cc21` (single isomer, unassigned) [Example 584], the pIC50 in the test on HCT116 WT cells is 4.30; in the test with HCT116 MTAP null cells, 5.16.
Taken in the same sequence, the figures for `CN(C(=O)c1cc2c3c(c(N)nc2cn1)COC3)[C@@H]1CCOc2cc(C(F)(F)F)ccc21` (single isomer, unassigned) [Example 585] were 4.90 and 6.59.
For `CN(C(=O)c1cc2c3c(c(N)nc2cn1)COC3)[C@H]1CCOc2cc(C(F)(F)F)ccc21` (single isomer, unassigned) [Example 586] the same measures were 5.00 and 5.52.
For `CCN(C(=O)c1cc2c3c(c(N)nc2cn1)COC3)[C@@H]1COCc2cc(Br)ccc21` (single isomer, unassigned) [Example 587] the same measures were 6.24 and 7.68.
For `CCN(C(=O)c1cc2c3c(c(N)nc2cn1)COC3)[C@H]1COCc2cc(Br)ccc21` (single isomer, unassigned) [Example 588], the pIC50 was 5.00 in the test with HCT116 WT cells and 5.70 in the test on HCT116 MTAP null cells.
For `CN(C(=O)c1cnc2nc(N)c3c(c2c1)COC3)[C@H]1COCc2cc(Br)ccc21` (single isomer, unassigned) [Example 589] the same measures were 4.46 and 5.10.
Taken in the same sequence, the figures for `CN(C(=O)c1cnc2nc(N)c3c(c2c1)COC3)[C@@H]1COCc2cc(Br)ccc21` (single isomer, unassigned) [Example 590] were 5.35 and 6.89.
With `CN(C(=O)c1cc2c3c(c(N)nc2cc1F)COC3)[C@@H]1COCc2cc(S(C)(=O)=O)ccc21` (single isomer, unassigned) [Example 591], the figures for the negative logarithm of the IC50 (pIC50) in the test with HCT116 WT cells and with HCT116 MTAP null cells were 5.79 and 7.59, respectively.
Taken in the same sequence, the figures for `C[C@H]1OCc2c1c(N)nc1cc(F)c(C(=O)N(C)[C@@H]3COCc4cc(S(C)(=O)=O)ccc43)cc21` (single isomer, unassigned) [Example 592] were 5.99 and 7.68.
Taken in the same sequence, the figures for `Cn1ncc2c(N)nc3ccc(C(=O)N(CC4CC4)[C@@H]4COCc5nc(C(F)(F)F)ccc54)cc3c21` (single isomer, unassigned) [Example 593] were 6.70 and 8.30.
In the case of `Cn1ncc2c(N)nc3ccc(C(=O)N(CC4CC4)[C@H]4COCc5nc(C(F)(F)F)ccc54)cc3c21` (single isomer, unassigned) [Example 594], the pIC50 was 4.71 in the test with HCT116 WT cells and 6.64 with HCT116 MTAP null cells.
Taken in the same sequence, the figures for `CN(C(=O)c1cc2c(cc1F)nc(N)c1cnn(C)c12)[C@@H]1COCc2cc(C#N)ccc21` (single isomer, unassigned) [Example 595] were 6.56 and 8.30.
For `CN(C(=O)c1cc2c(cc1F)nc(N)c1cnn(C)c12)[C@H]1COCc2cc(C#N)ccc21` (single isomer, unassigned) [Example 596], the values for the pIC50 with HCT116 WT cells and in the test with HCT116 MTAP null cells were 4.77 and 6.73, respectively.
In the case of `CN(C(=O)c1cc2c(cc1F)nc(N)c1cnn(C)c12)[C@@H]1COCc2c1ccc(F)c2F` (single isomer, unassigned) [Example 597], the pIC50 is 6.10 in the test with HCT116 WT cells and 7.82 with HCT116 MTAP null cells.
Take `CN(C(=O)c1cc2c(cc1F)nc(N)c1cnn(C)c12)[C@H]1COCc2c1ccc(F)c2F` (single isomer, unassigned) [Example 598]: the negative-log IC50 (pIC50) in the test with HCT116 WT cells was 5.00; with HCT116 MTAP null cells, 6.38.
On to `CN(C(=O)c1cc2c(cc1F)nc(N)c1cnn(C)c12)[C@@H]1COCc2cc(C(F)(F)F)cnc21` (single isomer, unassigned) [Example 599], for which the pIC50 in the test with HCT116 WT cells was 5.42; in the test with HCT116 MTAP null cells, 7.19.
For `CN(C(=O)c1cc2c(cc1F)nc(N)c1cnn(C)c12)[C@@H]1COCc2cc(S(C)(=O)=O)ccc21` (single isomer, unassigned) [Example 600], the figures for the pIC50 in the test on HCT116 WT cells and in the test on HCT116 MTAP null cells were 6.65 and 8.00, respectively.
For `C[C@H]1OC[C@@H](N(C)C(=O)c2ccc3nc(N)c4c(cnn4C)c3c2)c2ccc(C(F)(F)F)cc21` (single isomer, unassigned) [Example 601], the values for the pIC50 with HCT116 WT cells and in the test with HCT116 MTAP null cells were 5.68 and 7.68, respectively.
Taken in the same sequence, the figures for `C[C@H]1OC[C@H](N(C)C(=O)c2ccc3nc(N)c4c(cnn4C)c3c2)c2ccc(C(F)(F)F)cc21` (single isomer, unassigned) [Example 602] were 4.67 and 5.37.
Taken in the same sequence, the figures for `C[C@@H]1OC[C@@H](N(C)C(=O)c2ccc3nc(N)c4c(cnn4C)c3c2)c2ccc(C(F)(F)F)cc21` (single isomer, unassigned) [Example 603] were 4.80 and 6.49.
For `C[C@@H]1OC[C@H](N(C)C(=O)c2ccc3nc(N)c4c(cnn4C)c3c2)c2ccc(C(F)(F)F)cc21` (single isomer, unassigned) [Example 604] the same measures were 4.72 and 5.64.
Turning to `CN(C(=O)c1cc2c(cc1F)nc(N)c1c2cnn1C)[C@@H]1COCc2c1ccc(F)c2F` (single isomer, unassigned) [Example 605], the pIC50 with HCT116 WT cells is 4.58; in the test on HCT116 MTAP null cells, 6.55.
Taken in the same sequence, the figures for `CN(C(=O)c1cc2c(cc1F)nc(N)c1c2cnn1C)[C@@H]1COCc2cc(C(F)(F)F)cnc21` (single isomer, unassigned) [Example 606] were 4.87 and 6.14.
Taken in the same sequence, the figures for `Cn1ncc2c3cc(C(=O)N(CC4CC4)[C@@H]4COCc5nc(C(F)(F)F)ccc54)c(F)cc3nc(N)c21` (single isomer, unassigned) [Example 607] were 6.08 and 7.68.

These data come from US20240124442A1, “TRICYCLIC-AMIDO-BICYCLIC PRMT5 INHIBITORS” (AMGEN INC., priority 2021, published 2024).
